The results in this text go back to PMC9486168, “Protein-protein interaction-based high throughput screening for adenylyl cyclase 1 inhibitors: Design, implementation, and discovery of a novel chemotype” (Frontiers in Pharmacology, 2022).

Data set [1] can be described thus: CellTiter-Glo 2.0 cell viability assay.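 Further: luminescence read-out after 30 min compound exposure at 37 °C in HEPES-buffered HBSS, scaled to vehicle-treated cells as 100% and cell-free buffer wells as 0%.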 Type of data set: cell-based. As to conditions: human, HEK293T cells, pH 7.4; at the compound's AC1/CaM NanoBiT IC50 concentration; read-out: % Viable Cells at AC1 IC50.
The target of the next data set is T1, AC1-C1b/CaM (Homo sapiens, UniProt P0DP23).
T1 construct: made in house; host or cells: E. coli BL21-CodonPlus (DE3)-RIPL
The data set is described as follows: AC1-C1b/CaM fluorescence polarization (FP) assay. The class given is binding. As to conditions: for IC50: 100 nM AC1-C1b, 100 nM GST-CaM, 95% CI in brackets; for Ki: Cheng-Prusoff from FP IC50 and Kd; for inhibition of AC1/CaM in the FP assay after fresh powder stocks were ordered: repurchased powder; for AC1-CaM FP % inhib: relative to 100 μM CDZ (100% inhibition), highest concentration tested.

For the next data set, the target named is T2, AC8-Nt/CaM (Homo sapiens, UniProt P0DP23).
T2 construct: made in house; host or cells: E. coli BL21-CodonPlus (DE3)-RIPL
The data set is described as follows: AC8-Nt/CaM FP counterscreen assay.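 On all read-outs here: fluorescence polarization of AC peptide binding GST-CaM in HEPES buffer with CaCl2, compound preincubated with CaM 30 min, peptide read after 2 h at room temperature in dark.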 Type of data set: binding. As to conditions: for Ki (μM) AC8 NT / Ki: Cheng-Prusoff from FP IC50 and Kd, n/i given where none; for Ki ratio (AC8 NT/AC1): ratio >1: more potent in AC1/CaM FP.

The next data set addresses T3, AC8-C2b/CaM (Homo sapiens, UniProt P0DP23).
T3 construct: made in house; host or cells: E. coli BL21-CodonPlus (DE3)-RIPL
The data set is described as follows: AC8-C2b/CaM FP counterscreen assay.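 On all read-outs here: fluorescence polarization of AC peptide binding to GST-CaM in HEPES buffer with KCl and 50 µM CaCl2, compound preincubated 30 min with GST-CaM, DMSO and calmidazolium as controls.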 Type of data set: binding. As to conditions: for Ki (μM) AC8 C2b / Ki: Cheng-Prusoff from FP IC50 and Kd, n/i given where none; for Ki ratio (AC8-C2b/AC1): ratio >1: more potent in AC1/CaM FP.

Another data set has as its target T4, AC1/CaM PPI (Homo sapiens, UniProt P0DP23).
T4 construct: human AC1 (hAC1) residues 1–1,118 were cloned; The hCaM residues 1–149, residues 1–1,248 of rat AC8 (rAC8); expressed in transfected cells; host or cells: HEK293T, transient transfection
The data set is described as follows: AC1/CaM NanoBiT assay in HEK293T cells. Type of data set: cell-based. As to conditions: HEK293T, thapsigargin-stimulated, AUC; for IC50: read-out: Nanobit: AC1-CaM IC50 (μM ± SEM).

The target in the next data set is T5, AC1 (Homo sapiens, UniProt Q08828).
T5 construct: expressed in transfected cells
The data set is described as follows: cAMP accumulation assay, AC1-HEK Δ3/6 KO cells. The class given is cell-based. As to conditions: for IC50: initial examination, 10,000 cells per well, 3 μM A23187, 1 h RT, read-out: AC1 IC50 ± SEM. As to the method:
Cells were then incubated for 1 h at 37°C and 5% CO2. Cells were then treated with varying concentrations of inhibitors for 30 min, followed by treatment with calcium ionophore A23187 (3 μM) in 500 μM 3-isobutyl-1-methylxanthine (IBMX), a phosphodiesterase inhibitor, for 1 h at RT (Sigma Aldrich, St. Louis, MO). Finally, Cisbio HTRF detection reagents were added and incubated for 1–24 h at RT. Plates were read according to manufacturer’s protocol on an HTRF-compatible plate reader at 620 and 665 nm cAMP concentrations were interpolated from a cAMP standard curve. […] For cytotoxicity assays, compounds were tested at 30 μM and this protocol was used with the exception of detection reagents; CellTiter-Glo 2.0 reagent was used according to manufacturer’s protocol and luminescence was read on the Synergy Neo2 plate reader. Data are normalized to cells treated with vehicle (100%) or 2% tween (0%) and are represented as the percent of vehicle, from the average of three independent experiments (N = 3).

Another data set concerns the target T6, AC8/CaM PPI (Homo sapiens, UniProt P0DP23).
T6 construct: confirmed as an AC1/AC8 non-selective hit against full-length AC1- and AC8-CaM in the NanoBiT assay; The hCaM residues 1–149, residues 1–1,248 of rat AC8 (rAC8); expressed in transfected cells; host or cells: HEK293T, transient transfection
The data set is described as follows: AC8/CaM NanoBiT assay in HEK293T cells. Type of data set: cell-based, rat. As to conditions: for IC50: HEK293T, thapsigargin-stimulated, AUC, read-out: Nanobit: AC8-CaM IC50 (μM ± SEM).

Values joined by “and” are separate entries in the source; they are usually repeats but may differ in a detail not shown here. Equal values may be shown once. Where a name gives a salt, the structure may show the parent alone.

T5 sequence (Q08828 whole entry): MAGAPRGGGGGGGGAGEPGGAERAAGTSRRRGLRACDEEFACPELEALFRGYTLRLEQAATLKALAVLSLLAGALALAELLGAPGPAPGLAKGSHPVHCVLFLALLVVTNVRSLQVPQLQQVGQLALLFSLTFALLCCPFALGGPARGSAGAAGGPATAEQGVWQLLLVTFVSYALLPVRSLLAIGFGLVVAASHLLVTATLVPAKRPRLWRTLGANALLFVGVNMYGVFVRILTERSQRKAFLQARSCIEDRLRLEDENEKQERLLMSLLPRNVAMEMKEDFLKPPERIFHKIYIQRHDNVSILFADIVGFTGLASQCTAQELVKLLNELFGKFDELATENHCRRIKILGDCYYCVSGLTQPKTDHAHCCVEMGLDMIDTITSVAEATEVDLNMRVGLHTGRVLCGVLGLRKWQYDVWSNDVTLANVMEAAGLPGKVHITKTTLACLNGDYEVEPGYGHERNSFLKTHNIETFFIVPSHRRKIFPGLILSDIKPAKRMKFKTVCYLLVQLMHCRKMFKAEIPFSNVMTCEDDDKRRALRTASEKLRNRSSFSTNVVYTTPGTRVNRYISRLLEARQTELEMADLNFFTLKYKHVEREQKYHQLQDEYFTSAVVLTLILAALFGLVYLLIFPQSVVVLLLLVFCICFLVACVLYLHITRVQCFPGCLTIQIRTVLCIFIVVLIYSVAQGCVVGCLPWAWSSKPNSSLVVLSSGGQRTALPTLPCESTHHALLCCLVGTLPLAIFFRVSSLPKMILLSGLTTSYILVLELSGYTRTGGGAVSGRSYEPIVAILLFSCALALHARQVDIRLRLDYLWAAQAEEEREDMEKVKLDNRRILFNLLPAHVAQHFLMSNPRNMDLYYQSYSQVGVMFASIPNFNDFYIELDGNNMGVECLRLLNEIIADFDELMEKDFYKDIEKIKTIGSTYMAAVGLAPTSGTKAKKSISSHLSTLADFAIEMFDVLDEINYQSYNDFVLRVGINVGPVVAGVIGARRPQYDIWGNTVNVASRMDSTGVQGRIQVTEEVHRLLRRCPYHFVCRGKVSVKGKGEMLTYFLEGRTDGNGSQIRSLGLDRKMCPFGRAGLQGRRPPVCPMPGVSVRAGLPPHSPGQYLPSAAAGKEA

Turning to `CCC12CN3CC(CC)(CN(C1)C31C(=O)N(C)c3ccc(Br)cc31)C2=O` (centres unmarked) [Compound 14], in data set [1], the viability at 30 min stood at 100%. Also, on AC1-C1b/CaM, it took 58.2 µM to reach half-maximal inhibition (IC50) and the affinity, expressed as Ki, was 13.8 µM. Besides, at AC8-Nt/CaM, the “Ki (μM) AC8 NT” value is “n/i” and the “Ki ratio (AC8 NT/AC1)” value is recorded as “AC1 Selective”. Further, on AC8-C2b/CaM, the “Ki (μM) AC8 C2b” value is on record as “n/i” and the “Ki ratio (AC8-C2b/AC1)” value is “AC1 Selective”. Also, the IC50 at AC1/CaM PPI was 84 ± 1.7 µM.

`Clc1ccc(C(c2ccc(Cl)cc2)n2cc[n+](CC(OCc3ccc(Cl)cc3Cl)c3ccc(Cl)cc3Cl)c2)cc1` (centres unmarked) [CDZ, Calmidazolium]: on AC1-C1b/CaM, the IC90 is about 100 µM; the IC50 is 15.1 µM and ~15 µM.

Turning to `CCN(C)C(=O)Oc1cccc([C@H](C)N(C)C)c1` [rivastigmine tartrate], the “inhibition of AC1/CaM in the FP assay after fresh powder stocks were ordered” value (from here on “inhibition of AC1/CaM in the FP assay”) at AC1-C1b/CaM was “did not exhibit significant inhibition”.

As for `Cc1ccc(S(=O)(=O)Nc2cc(N3CCCS3(=O)=O)ccc2C)cc1` [Compound 19], on AC1-C1b/CaM, the IC50 stood at 43.4 µM and the affinity corresponds to a Ki of 10.3 µM. For the same compound, on AC8-Nt/CaM, the “Ki (μM) AC8 NT” value is given as “n/i” and the “Ki ratio (AC8 NT/AC1)” value is “AC1 Selective”. In addition, at AC8-C2b/CaM, the “Ki (μM) AC8 C2b” value is recorded as “n/i” and the “Ki ratio (AC8-C2b/AC1)” value is recorded as “AC1 Selective”. Moreover, the “Nanobit: AC1-CaM IC50 (μM ± SEM)” value on AC1/CaM PPI is reported as “No Inhibition”.

As to ethyl quinine, at AC1-C1b/CaM, the “inhibition of AC1/CaM in the FP assay” value was “did not exhibit significant inhibition”.

As to `CNC(=O)C1=C(Nc2ccc(N(C)C)cc2)c2ccccc2S1(=O)=O` [Compound 20], in data set [1], the viability at 30 min is 100%. The IC50 against AC1-C1b/CaM came out at 43 µM; on AC1, 66.3 ± 33.3 µM; on AC8/CaM PPI, 70.3 ± 1.13 µM; at AC1/CaM PPI, 63 ± 1.34 µM. The Ki on AC1-C1b/CaM was 10.2 µM; at AC8-Nt/CaM it was 5.9 µM; at AC8-C2b/CaM, 4.5 µM. The “AC1-CaM FP % inhib” value on AC1-C1b/CaM is about 70%. Further, at AC8-Nt/CaM, the “Ki ratio (AC8 NT/AC1)” value came out at 0.58. The “Ki ratio (AC8-C2b/AC1)” value on AC8-C2b/CaM was found to be 0.44.

`CN(C)c1ccc2nc3ccc(=[N+](C)C)cc-3sc2c1` [Compound 2, Methylene Blue]: the viability at 30 min in data set [1] was 86%. In addition, the IC50 at AC1-C1b/CaM was determined as 2.18 µM; on AC8/CaM PPI, 80.3 ± 1.14 µM; at AC1/CaM PPI it was 98 ± 1.14 µM. Also, the figures for the Ki at AC1-C1b/CaM, on AC8-Nt/CaM and on AC8-C2b/CaM were 0.51 µM, 3.2 µM and 0.82 µM, respectively.

Regarding `CCC(C)CC(C)CCCCCCCCC(=O)NC1CC(O)C(NCCN)NC(=O)C2C(O)CCN2C(=O)C(C(O)CCN)NC(=O)C(C(O)C(O)c2ccc(O)cc2)NC(=O)C2CC(O)CN2C(=O)C(C(C)O)NC1=O` (centres unmarked) [Compound 5, Caspofungin Acetate], at AC1-C1b/CaM, the midpoint of inhibition, the IC50, lay at 12.7 µM; the Ki was 3 µM; the “AC1-CaM FP % inhib” value was found to be 20%. In addition, on AC8-Nt/CaM, the Ki is 6.3 µM; the “Ki ratio (AC8 NT/AC1)” value was 2 and 2.1. Also, at AC8-C2b/CaM, the Ki amounted to 6.2 µM; the “Ki ratio (AC8-C2b/AC1)” value was 2 and 2.1.

In the case of `CN1CCN(CCNC(=O)c2cc3c(=O)n(C)c(=O)n(C)c3s2)CC1` [Compound 17], at AC1-C1b/CaM, 75.4 µM corresponded to half-maximal inhibition (IC50), the Ki is 17.8 µM and the “AC1-CaM FP % inhib” value is reported as 53%. For the same compound, on AC8-Nt/CaM, the “Ki (μM) AC8 NT” value was “n/i” and the “Ki ratio (AC8 NT/AC1)” value is on record as “AC1 Selective”. Besides, on AC8-C2b/CaM, the “Ki (μM) AC8 C2b” value is recorded as “n/i” and the “Ki ratio (AC8-C2b/AC1)” value is given as “AC1 Selective”. Moreover, the “Nanobit: AC1-CaM IC50 (μM ± SEM)” value on AC1/CaM PPI was “No Inhibition”.

Take `CN1CCC[C@H]1c1cccnc1.O=C(O)C(O)C(O)C(=O)O.O=C(O)C(O)C(O)C(=O)O` [nicotine ditartrate]: the “inhibition of AC1/CaM in the FP assay” value against AC1-C1b/CaM is “did not exhibit significant inhibition”.

On to `CC1=C(CCC(=O)O)c2cc3[nH]c(cc4nc(cc5[nH]c(cc1n2)c(C)c5C(C)O)C(C)=C4C(C)O)c(C)c3CCC(=O)O` (centres unmarked) [Compound 6, Hematoporphyrin], for which the viability at 30 min in data set [1] came to 95%. On AC1-C1b/CaM, the IC50 came to 14.7 µM; the affinity, expressed as Ki, was 3.5 µM; the “AC1-CaM FP % inhib” value came to 131%. At AC8-Nt/CaM, the Ki came to 61.7 µM and the “Ki ratio (AC8 NT/AC1)” value is given as 17.8. Further, at AC8-C2b/CaM, the Ki was 10.1 µM and the “Ki ratio (AC8-C2b/AC1)” value came out at 2.9. In addition, the “fold selective for AC8 over AC1 in the NanoBiT assay” value on AC8/CaM PPI (AC8/CaM vs AC1/CaM NanoBiT) was 2- to 4 fold. For the same compound, the 50% inhibitory concentration (IC50) on AC8/CaM PPI is 11.6 ± 1.24 µM. Besides, the IC50 on AC1/CaM PPI turned out to be 38.4 ± 1.17 µM.

Consider `CN(C(=O)CN(CCO)CC(=O)N(C)C(C)(C)Cc1ccccc1)C(C)(C)Cc1ccccc1` [Compound 8, Oxetacaine], for which the viability at 30 min in data set [1] came to 93.3%. Further, at AC1-C1b/CaM, the IC50 stood at 20 µM; the affinity, expressed as Ki, was 4.7 µM; the “AC1-CaM FP % inhib” value came to 38%. For the same compound, at AC8-Nt/CaM, the affinity corresponds to a Ki of 38 µM and the “Ki ratio (AC8 NT/AC1)” value turned out to be 8.0. Also, on AC8-C2b/CaM, the Ki was found to be 33.5 µM and the “Ki ratio (AC8-C2b/AC1)” value is reported as 7.1. The IC50 on AC8/CaM PPI was 34.6 ± 1.32 µM. Besides, the IC50 at AC1/CaM PPI was 40 ± 1.15 µM.

As for `CCNC(=O)c1cc2c(=O)n(C)c(=O)n(C)c2s1` [Compound 16], at AC1-C1b/CaM, the half-maximal inhibitory concentration (IC50) was 24.2 µM and the Ki turned out to be 5.7 µM. For the same compound, at AC8-Nt/CaM, the “Ki (μM) AC8 NT” value was “n/i” and the “Ki ratio (AC8 NT/AC1)” value is given as “AC1 Selective”. On AC8-C2b/CaM, the “Ki (μM) AC8 C2b” value was “n/i” and the “Ki ratio (AC8-C2b/AC1)” value was “AC1 Selective”. The “Nanobit: AC1-CaM IC50 (μM ± SEM)” value on AC1/CaM PPI is “No Inhibition”.

On to `CCCCCCCCCCCCCCCC[N+](C)(C)CCN(Cc1ccc(OC)cc1)c1ncccn1` [Compound 4, Thonzonium], for which the viability at 30 min in data set [1] is 100%. The IC50 against AC1-C1b/CaM worked out at 4.14 µM; at AC8/CaM PPI, 18.5 ± 1.26 µM; at AC1/CaM PPI, 29.1 ± 1.2 µM. Further, the Ki was 1 µM at AC1-C1b/CaM, 2.7 µM at AC8-Nt/CaM and 3.6 µM on AC8-C2b/CaM. The “AC1-CaM FP % inhib” value on AC1-C1b/CaM was found to be 94%. Moreover, the “Ki ratio (AC8 NT/AC1)” value at AC8-Nt/CaM came out at 2.7. In addition, on AC8-C2b/CaM, the “Ki ratio (AC8-C2b/AC1)” value is given as 3.7.

As to `CCc1oc2ccccc2c1C(=O)c1cc(Br)c(O)c(Br)c1` [Compound 12, Benzbromarone], the viability at 30 min in data set [1] came to 90%. The IC50 stood at 33 µM on AC1-C1b/CaM, 4.09 ± 2.41 µM at AC1, 4.16 ± 1.15 µM on AC8/CaM PPI and 1.7 ± 1.17 µM on AC1/CaM PPI. For the same compound, the figures for the Ki on AC1-C1b/CaM, at AC8-Nt/CaM and on AC8-C2b/CaM were 7.8 µM, 52.1 µM and 23.8 µM, respectively. In addition, the “AC1-CaM FP % inhib” value at AC1-C1b/CaM is 47%. Further, the “inhibition of AC1 activity (efficacy)” value at AC1 (initial characterization of hits, data not shown) was about 75%.
